These results are taken from ChEMBL document CHEMBL6074663, “Design, synthesis and evaluation of 3-(2-(substituted benzyloxy)benzylidene) pyrrolidine-2,5-dione derivatives for novel ATX inhibitor” (Bioorg Med Chem Lett, 2024).

Assay [1] concerns the target T1, Autotaxin (Homo sapiens, UniProt Q13822). In words: Inhibition of ATX (unknown origin) using FS-3 as substrate preincubated with compound for 10 mins followed by substrate addition measured for 30 mins by fluorometric kinetic assay.
Assay [2] deals with T1, Autotaxin. In words: Inhibition of ATX (unknown origin) using FS-3 as substrate by measuring fold change preincubated with compound for 10 mins followed by substrate addition measured for 30 mins by fluorometric kinetic assay compared to 3-(2-(benzyloxy)benzylidene)-1-(3-chlorophenyl)pyrrolidine-2,5-dione. The settings on record: time 40.0 min.
A short description of assay [3]: Inhibition of collagen formation in oleic and palmitic acid induced human Huh-7 cells cocultured with human LX2 cells at 1 to 10 uM incubated for […] by Sirius Red staining based analysis. The class given is functional. As to conditions: dose 1-10 µM.
The test system of assay [4] is LX-2. Nature of the assay: Inhibition of cell migration in TGF-beta induced human LX2 cells by measuring cell uncovered area at 0.3 to 3 uM incubated for 24 hrs by wound healing assay. Format: functional. The settings on record: dose 0.3-3 µM.
The subject of assay [5] is Huh-7. Nature of the assay: Anti-steatosis activity against oleic acid induced human Huh-7 cells assessed as reduction of lipid accumulation at 1 to 10 uM incubated for 24 hrs by […] based fluorescence microscopic analysis. The arrangement: scale not given: the % may be the effect or the level left. The settings on record: dose 1-10 µM. The class given is functional.

Take `O=C1C/C(=C/c2ccccc2OCc2ccccc2)C(=O)N1c1cccc(Cl)c1`: the IC50 (in general, the concentration needed to halve the response being measured) in assay [1] turned out to be 980 nM.
Take `CN(C)C(=O)c1ccc(COc2ccccc2/C=C2/CC(=O)N(c3cccc(Cl)c3)C2=O)cc1`: in assay [1], the half-inhibitory concentration (IC50) was more than 10000 nM.
`N#Cc1ccc(COc2ccccc2/C=C2/CC(=O)N(c3cccc(Cl)c3)C2=O)cc1`: the IC50 in assay [1] is 280 nM. Further, the fold change (FC) in assay [2] was 3.5.
On to `NC(=O)c1ccc(COc2ccccc2/C=C2/CC(=O)N(c3cccc(Cl)c3)C2=O)cc1`, for which the half-inhibitory concentration (IC50) in assay [1] is 240 nM.
Consider `O=C(Oc1ccccc1)c1ccc(COc2ccccc2/C=C2/CC(=O)N(c3cccc(Cl)c3)C2=O)cc1`, for which, in assay [1], the IC50 worked out at 2040 nM.
Still for that read-out and setting: to `O=C(O)c1ccc(COc2ccccc2/C=C2/CC(=O)N(c3cccc(Cl)c3)C2=O)cc1` belongs 9390 nM.
On to `COC(=O)c1ccc(COc2ccccc2/C=C2\CC(=O)N(c3cccc(Cl)c3)C2=O)cc1`, for which, in assay [1], the IC50 stood at 130 nM. Moreover, the “inhibition (INH)” value in assay [3] came to 35%; in assay [4], 23%. Moreover, the Activity in assay [5] amounted to 42%.
As for `O=C(Oc1cccc2ccccc12)c1ccc(COc2ccccc2/C=C2/CC(=O)N(c3cccc(Cl)c3)C2=O)cc1`, the IC50 in assay [1] is more than 10000 nM.
Still for that read-out and setting: to `CCCOC(=O)c1ccc(COc2ccccc2/C=C2/CC(=O)N(c3cccc(Cl)c3)C2=O)cc1` belongs 320 nM.
On the same count and under the same terms, the same measure for `CC(C)OC(=O)c1ccc(COc2ccccc2/C=C2/CC(=O)N(c3cccc(Cl)c3)C2=O)cc1`: 270 nM.
